Laboratory results taken from the NIST ThermoML archive (doi:10.1021/je034203p).

Assay: xn = mol fraction of the nth substance listed
Conditions: 298.15 K, 101.3 kPa, Liquid; for viscosity: Capillary tube (Ostwald / Ubbelohde) method

CC(C)=O [acetone] + ClC(Cl)=C(Cl)Cl
x2 = 0
Conditions | mass density [kg/m3] | viscosity [mPa·s]
– | 780.8 | 0.3121

ClC(Cl)=C(Cl)Cl [tetrachloroethene] + c1ccccc1
Conditions | mass density [kg/m3] | viscosity [mPa·s]
x1 = 0.0883 | 939.8 | 0.6141
x1 = 0.1788 | 1011.5 | 0.6279
x1 = 0.272 | 1084.6 | 0.6438
x1 = 0.3674 | 1156.7 | 0.6618
x1 = 0.4655 | 1228.8 | 0.6834
x1 = 0.5671 | 1302.3 | 0.7088
x1 = 0.6706 | 1377.4 | 0.7367
x1 = 0.777 | 1453.2 | 0.7693
x1 = 0.8873 | 1531.7 | 0.8051
x1 = 1 | 1610.2 | 0.8474

ClC(Cl)(Cl)Cl [tetrachloromethane] + ClC(Cl)=C(Cl)Cl
x2 = 0
Conditions | mass density [kg/m3] | viscosity [mPa·s]
– | 1586.1 | 0.9096

CCC(C)=O [butanone] + ClC=C(Cl)Cl
x2 = 0
Conditions | mass density [kg/m3] | viscosity [mPa·s]
– | 797.4 | 0.4011

ClC=C(Cl)Cl [trichloroethene] + CCCCO
Conditions | mass density [kg/m3] | viscosity [mPa·s]
x1 = 0.1018 | 870 | 2.098
x1 = 0.2033 | 934.3 | 1.734
x1 = 0.3038 | 997.5 | 1.429
x1 = 0.4042 | 1061.9 | 1.19
x1 = 0.5046 | 1126.5 | 1.008
x1 = 0.6045 | 1191.4 | 0.8696
x1 = 0.7042 | 1257 | 0.7737
x1 = 0.8025 | 1321.9 | 0.6878
x1 = 0.9014 | 1388.3 | 0.6227
x1 = 1 | 1455.7 | 0.551

COC(C)=O [methyl ethanoate] + ClC=C(Cl)Cl
x2 = 0
Conditions | mass density [kg/m3] | viscosity [mPa·s]
– | 923.9 | 0.3711

ClC(Cl)=C(Cl)Cl [tetrachloroethene] + Cc1ccccc1
Conditions | mass density [kg/m3] | viscosity [mPa·s]
x1 = 0.1034 | 932 | 0.5799
x1 = 0.2062 | 1004.7 | 0.6014
x1 = 0.3079 | 1078.4 | 0.6234
x1 = 0.4093 | 1151.3 | 0.6477
x1 = 0.5095 | 1225.3 | 0.6743
x1 = 0.6092 | 1300.1 | 0.7053
x1 = 0.7083 | 1376.8 | 0.7377
x1 = 0.806 | 1451.7 | 0.7701
x1 = 0.9038 | 1530.1 | 0.8084
x1 = 1 | 1610.2 | 0.8474

CCC(C)O (configuration not stated) [butan-2-ol] + ClC=C(Cl)Cl
x2 = 0
Conditions | mass density [kg/m3] | viscosity [mPa·s]
– | 804.8 | 3.103

ClC=C(Cl)Cl [trichloroethene] + ClC(Cl)(Cl)Cl
Conditions | mass density [kg/m3] | viscosity [mPa·s]
x1 = 0.1068 | 1568.1 | 0.8568
x1 = 0.212 | 1552.3 | 0.8098
x1 = 0.315 | 1536.3 | 0.7632
x1 = 0.4171 | 1520.8 | 0.7186
x1 = 0.5178 | 1506.7 | 0.6826
x1 = 0.6175 | 1495.3 | 0.6511
x1 = 0.7152 | 1484.6 | 0.6226
x1 = 0.8114 | 1475 | 0.5965
x1 = 0.9064 | 1464.6 | 0.5727
x1 = 1 | 1455.7 | 0.551

CCCO [propan-1-ol] + ClC=C(Cl)Cl
x2 = 0
Conditions | mass density [kg/m3] | viscosity [mPa·s]
– | 800 | 1.954

CO [methanol] + ClC=C(Cl)Cl
x2 = 0
Conditions | mass density [kg/m3] | viscosity [mPa·s]
– | 788.1 | 0.5482

CC(C)=O [acetone] + ClC=C(Cl)Cl
x2 = 0
Conditions | mass density [kg/m3] | viscosity [mPa·s]
– | 780.8 | 0.3121

CCOC(C)=O [ethyl acetate] + ClC=C(Cl)Cl
x2 = 0
Conditions | mass density [kg/m3] | viscosity [mPa·s]
– | 894 | 0.4274

ClC(Cl)=C(Cl)Cl [tetrachloroethene] + CCO
Conditions | mass density [kg/m3] | viscosity [mPa·s]
x1 = 0.0593 | 868.1 | 1.073
x1 = 0.1243 | 949.6 | 1.04
x1 = 0.1957 | 1029.4 | 1.007
x1 = 0.2746 | 1111.3 | 0.9767
x1 = 0.3619 | 1191.8 | 0.9475
x1 = 0.4601 | 1273.7 | 0.9189
x1 = 0.57 | 1356 | 0.8939
x1 = 0.6944 | 1440 | 0.8729
x1 = 0.8364 | 1524.9 | 0.8551
x1 = 1 | 1610.2 | 0.8474

ClC=C(Cl)Cl [trichloroethene] + Cc1ccccc1
Conditions | mass density [kg/m3] | viscosity [mPa·s]
x1 = 0.1166 | 917.5 | 0.5592
x1 = 0.2291 | 975.6 | 0.5535
x1 = 0.3367 | 1033 | 0.5498
x1 = 0.4417 | 1090.9 | 0.5452
x1 = 0.5426 | 1149 | 0.5432
x1 = 0.64 | 1210.5 | 0.5445
x1 = 0.7348 | 1270.8 | 0.5454
x1 = 0.8257 | 1331.5 | 0.5477
x1 = 0.9147 | 1393.2 | 0.5495
x1 = 1 | 1455.7 | 0.551

c1ccccc1 [benzene] + ClC=C(Cl)Cl
x2 = 0
Conditions | mass density [kg/m3] | viscosity [mPa·s]
– | 869.7 | 0.608

CCCO [propan-1-ol] + ClC(Cl)=C(Cl)Cl
x2 = 0
Conditions | mass density [kg/m3] | viscosity [mPa·s]
– | 800 | 1.954
